According to patent US20120122727A1, “IN VITRO METHOD FOR PREDICTING WHETHER A COMPOUND IS GENOTOXIC IN VIVO” (priority 2009, published 2012):
Like-named read-outs stand apart in the source and are kept apart here.

Tests used:
[1] = cited from earlier work
[2] = tested on: primary mouse hepatocytes; assay: Class prediction true GTX vs false GTX by PAM from hepatocyte gene expression
Description: PAM uses gene expression data to calculate the shrunken centroid for each class and identifies the specific genes that determine the centroid most. Based on the nearest shrunken centroid, PAM is also capable of predicting to which class an unknown sample belongs (27). Class prediction was performed after 24 h and 48 h of exposure.
For this analysis, the gene list with differentially expressed probe sets was used. For each exposure period, 3 sets of genes (classifiers) were generated by PAM, using all ten treatments, based on the smallest estimated misclassification error rate (generated by 10-fold cross-validation) and a >80% predicted test probability. This was done by using 2 experiments as training set and the third experiment for validation. This was done for all 3 possible combinations, each time leaving out another experiment. For each time point, the classifiers that were in common between the three training sets, were set as the final classifier set for that time point
For the purpose of validating the class discrimination models with the final classifier sets, gene expression data were generated for two additional true GTX compounds, phenacetin and DMBA, and for three False GTX compounds, cur, ethylacrylate and resorcinol and the vehicle control for exposure periods of 24 and 48 h.

Structure (SMILES) | Genotoxic class ([1]; known class of the validation compound (GTX = true GTX, FP-GTX = false GTX)) | Prediction 24 h Exp 1 ([2]; PAM class prediction, 24 h, Exp 1) | Prediction 24 h Exp 2 ([2]; PAM class prediction, 24 h, Exp 2) | Prediction 24 h Exp 3 ([2]; PAM class prediction, 24 h, Exp 3) | Prediction 48 h Exp 1 ([2]; PAM class prediction, 48 h, Exp 1) | Prediction 48 h Exp 2 ([2]; PAM class prediction, 48 h, Exp 2) | Prediction 48 h Exp 3 ([2]; PAM class prediction, 48 h, Exp 3) | Genotoxic class ([1]; in vivo) | Prediction 24 h Exp 1 [2] | Prediction 24 h Exp 2 [2] | Prediction 24 h Exp 3 [2] | Prediction 48 h Exp 1 [2] | Prediction 48 h Exp 2 [2] | Prediction 48 h Exp 3 [2] | class prediction (true GTX / false GTX) [2] | predicted test probability [2] [%]
CCOc1ccc(NC(C)=O)cc1 [Phen] | GTX | GTX | GTX | GTX | FP-GTX | FP-GTX | FP-GTX | – | – | – | – | – | – | – | – | –
COc1cc(/C=C/C(=O)CC(=O)/C=C/c2ccc(O)c(OC)c2)ccc1O [cur] | – | – | – | – | – | – | – | FP-GTX | FP-GTX | FP-GTX | FP-GTX | FP-GTX | FP-GTX | FP-GTX | classified correctly | 100
